EP4001279A1, “NOVEL SPIROPYRROLIDINE DERIVED ANTIVIRAL AGENTS” (Enanta Pharmaceuticals, Inc., priority 2020, dated 2022)

Test system: 229E human corona virus (hCoV)
Assay: 229E live virus assay (CPE, ATPlite readout in MRC-5 cells)
Format: cell-based, hCoV-229E
Conditions: Human coronavirus 229E, MRC5, hCoV-229E live virus, MOI 0.05, ATPlite readout, run in duplicate

| SMILES | EC50 [nM] |
| --- | --- |
| CCN(C(=O)OCc1ccccc1)[C@@H](CC(C)C)C(=O)N1C[C@]2(C[C@H]1C#N)C(=O)Nc1ccccc12 [Compound 90] | 100 to 1000 |
| CC(C)C[C@H](NC(=O)OCc1ccccc1)C(=O)N1C[C@]2(C[C@H]1C#N)C(=O)Nc1ccccc12 [Example 1] | 100 to 1000 |
| N#C[C@@H]1C[C@@]2(CN1C(=O)[C@H](CC1CCC1)NC(=O)OCc1ccccc1)C(=O)Nc1ccccc12 [Example 2] | 100 to 1000 |
| CC(C)(C)[C@H](NC(=O)OCc1ccccc1)C(=O)N1C[C@]2(C[C@H]1C#N)C(=O)Nc1ccccc12 [Example 3] | > 1000 |
| N#C[C@@H]1C[C@@]2(CN1C(=O)[C@H](CC1CC1)NC(=O)OCc1ccccc1)C(=O)Nc1ccccc12 [Example 4] | 100 to 1000 |
| CC(C)(C)C[C@H](NC(=O)OCc1ccccc1)C(=O)N1C[C@]2(C[C@H]1C#N)C(=O)Nc1ccccc12 [Example 5] | 100 to 1000 |
| COc1cccc2[nH]c(C(=O)N[C@@H](CC(C)C)C(=O)N3C[C@]4(C[C@H]3C#N)C(=O)Nc3ccccc34)cc12 [Example 11] | < 100 |
| COc1cccc2[nH]c(C(=O)N[C@H](CC(C)C)C(=O)N3C[C@]4(C[C@H]3C#N)C(=O)Nc3ccccc34)cc12 [Example 12] | 100 to 1000 |
| COc1cccc2[nH]c(C(=O)N[C@@H](CC3CCCCC3)C(=O)N3C[C@]4(C[C@H]3C#N)C(=O)Nc3ccccc34)cc12 [Example 13] | < 100 |
| COc1cccc2[nH]c(C(=O)N[C@H](CC3CCCCC3)C(=O)N3C[C@]4(C[C@H]3C#N)C(=O)Nc3ccccc34)cc12 [Example 14] | < 100 |
| COc1cccc2[nH]c(C(=O)N[C@@H](CC(C)(C)C)C(=O)N3C[C@]4(C[C@H]3C#N)C(=O)Nc3ccccc34)cc12 [Example 15] | < 100 |
| COc1cccc2[nH]c(C(=O)N[C@H](CC(C)(C)C)C(=O)N3C[C@]4(C[C@H]3C#N)C(=O)Nc3ccccc34)cc12 [Example 16] | 100 to 1000 |
| COc1cccc2[nH]c(C(=O)N[C@@H](CC3CCC3)C(=O)N3C[C@]4(C[C@H]3C#N)C(=O)Nc3ccccc34)cc12 [Example 17] | < 100 |
| CC(C)(C)[C@H](NC(=O)c1cc2c(F)cccc2[nH]1)C(=O)N1C[C@]2(C[C@H]1C#N)C(=O)Nc1ccccc12 [Example 18] | 100 to 1000 |
| COc1cccc2[nH]c(C(=O)N[C@@H](CC3CC3)C(=O)N3C[C@]4(C[C@H]3C#N)C(=O)Nc3ccccc34)cc12 [Example 19] | < 100 |
| CC(C)(C)C[C@H](NC(=O)c1cc2c(F)c(F)ccc2[nH]1)C(=O)N1C[C@]2(C[C@H]1C#N)C(=O)Nc1ccccc12 [Example 20] | < 100 |
| CC(C)(C)C[C@H](NC(=O)c1cc2c(F)cccc2[nH]1)C(=O)N1C[C@]2(C[C@H]1C#N)C(=O)Nc1ccccc12 [Example 21] | < 100 |
| COc1cccc2[nH]c(C(=O)NC(CC(C)C)C(=O)N3CC4(CC3C=O)C(=O)Nc3ccccc34)cc12 (stereo not shown) [Example 23] | < 100 |
| CC(C)C[C@@H](C(=O)N1C[C@]2(C[C@H]1C=O)C(=O)Nc1ccccc12)N(C)C(=O)OCc1ccccc1 [Example 24] | < 100 |
| CC(C)C[C@H](NC(=O)c1cc2c(F)cccc2[nH]1)C(=O)N1C[C@]2(C[C@H]1C=O)C(=O)Nc1ccccc12 [Example 25] | < 100 |
| COc1cc(C#N)cc2[nH]c(C(=O)N[C@@H](CC(C)C)C(=O)N3C[C@]4(C[C@H]3C#N)C(=O)Nc3ccccc34)cc12 [Example 26] | < 100 |

| SMILES | EC50 [nM] |
| --- | --- |
| CC(C)C[C@H](NC(=O)c1cc2c(F)cccc2[nH]1)C(=O)N1C[C@]2(C[C@H]1C#N)C(=O)Nc1ccccc12 [Example 27] | < 100 |
| CC(C)C[C@H](NC(=O)c1cc2c(F)cccc2[nH]1)C(=O)N1C[C@]2(C[C@H]1C#N)C(=O)Nc1c(F)cccc12 [Example 28] | < 100 |
| COc1cccc2[nH]c(C(=O)N[C@@H](CC(C)C)C(=O)N3C[C@]4(C[C@H]3C(O)S(=O)(=O)O)C(=O)Nc3ccccc34)cc12 (stereo partly shown) [Example 29] | < 100 |
| CC(C)C[C@@H](C(=O)N1C[C@]2(C[C@H]1C(O)S(=O)(=O)O)C(=O)Nc1ccccc12)N(C)C(=O)c1cc2c(F)cccc2[nH]1 (stereo partly shown) [Example 30] | < 100 |
| COc1cccc2[nH]c(C(=O)N[C@@H](CC(C)C)C(=O)N3C[C@]4(C[C@H]3C(=O)C(=O)NC3CC3)C(=O)Nc3ccccc34)cc12 [Example 31] | 100 to 1000 |
| COc1cccc2[nH]c(C(=O)N[C@@H](CC(C)C)C(=O)N3C[C@]4(C[C@H]3C(=O)C(=O)NCc3ccccc3)C(=O)Nc3ccccc34)cc12 [Example 32] | 100 to 1000 |
| COc1cccc2[nH]c(C(=O)N[C@@H](CC(C)C)C(=O)N3C[C@]4(C[C@H]3C(=O)C(=O)NC3CCCCC3)C(=O)Nc3ccccc34)cc12 [Example 33] | > 1000 |
| COc1cccc2[nH]c(C(=O)N(C)[C@@H](CC(C)C)C(=O)N3C[C@]4(C[C@H]3C(=O)C(=O)NC3CCCCC3)C(=O)Nc3ccccc34)cc12 [Example 34] | > 1000 |
| CC(C)C[C@@H](C(=O)N1C[C@]2(C[C@H]1C(=O)C(=O)NC1CCCCC1)C(=O)Nc1ccccc12)N(C)C(=O)c1cc2c(F)cccc2[nH]1 [Example 35] | > 1000 |
| CC(C)C[C@@H](C(=O)N1C[C@]2(C[C@H]1C(=O)C(=O)NC1CC1)C(=O)Nc1ccccc12)N(C)C(=O)c1cc2c(F)cccc2[nH]1 [Example 36] | 100 to 1000 |
| COc1cccc2[nH]c(C(=O)N[C@@H](CC(C)C)C(=O)N3C[C@]4(C[C@H]3C(=O)O)C(=O)Nc3ccccc34)cc12 [Example 37] | 100 to 1000 |
| CC(C)C[C@@H](C(=O)N1C[C@]2(C[C@H]1C#N)C(=O)Nc1ccccc12)N(C)C(=O)OCc1ccccc1 [Example 39] | > 1000 |
| CN(C(=O)OCc1ccccc1)[C@@H](CC(C)(C)C)C(=O)N1C[C@]2(C[C@H]1C#N)C(=O)Nc1ccccc12 [Example 40] | 100 to 1000 |
| CN(C(=O)OCc1ccccc1)[C@@H](Cc1ccccc1)C(=O)N1C[C@]2(C[C@H]1C#N)C(=O)Nc1ccccc12 [Example 41] | > 1000 |
| COc1cccc2[nH]c(C(=O)N(C)[C@@H](CC(C)C)C(=O)N3C[C@]4(C[C@H]3C#N)C(=O)Nc3ccccc34)cc12 [Example 42] | < 100 |
| CC(C)C[C@@H](C(=O)N1C[C@]2(C[C@H]1C#N)C(=O)Nc1ccccc12)N(C)C(=O)c1sc2cc(F)ccc2c1Cl [Example 43] | < 100 |
| CC(C)C[C@@H](C(=O)N1C[C@]2(C[C@H]1C#N)C(=O)Nc1ccccc12)N(C)C(=O)c1cc2c(F)cccc2[nH]1 [Example 44] | < 100 |
| CC(C)C[C@@H](C(=O)N1C[C@]2(C[C@H]1C#N)C(=O)Nc1ccccc12)N(C)C(=O)c1cc2c(C3CC3)cccc2[nH]1 [Example 45] | < 100 |
| CC(C)C[C@@H](C(=O)N1C[C@]2(C[C@H]1C#N)C(=O)Nc1ccccc12)N(C)C(=O)c1cc2c(F)cc(F)cc2[nH]1 [Example 46] | < 100 |
| Cc1c(C(=O)N(C)[C@@H](CC(C)C)C(=O)N2C[C@]3(C[C@H]2C#N)C(=O)Nc2ccccc23)[nH]c2cc(F)cc(F)c12 [Example 47] | 100 to 1000 |
| CC(C)C[C@@H](C(=O)N1C[C@]2(C[C@H]1C#N)C(=O)Nc1ccccc12)N(C)C(=O)c1[nH]c2ccccc2c1-c1ccccc1 [Example 48] | 100 to 1000 |

| SMILES | EC50 [nM] |
| --- | --- |
| CC(C)C[C@@H](C(=O)N1C[C@]2(C[C@H]1C#N)C(=O)Nc1ccccc12)N(C)C(=O)c1cc2c(OC(F)(F)F)cccc2[nH]1 [Example 49] | < 100 |
| CC(C)C[C@@H](C(=O)N1C[C@]2(C[C@H]1C#N)C(=O)Nc1ccccc12)N(C)C(=O)c1cc2ccc(F)cc2[nH]1 [Example 50] | < 100 |
| CC(C)C[C@@H](C(=O)N1C[C@]2(C[C@H]1C#N)C(=O)Nc1ccccc12)N(C)C(=O)c1cc2c(OC(F)F)cccc2[nH]1 [Example 51] | < 100 |
| CC(C)C[C@@H](C(=O)N1C[C@]2(C[C@H]1C#N)C(=O)Nc1ccccc12)N(C)C(=O)c1cc2c(F)cc(F)c(F)c2[nH]1 [Example 52] | < 100 |
| COc1ccc(Cl)c(C(=O)N(C)[C@@H](CC(C)C)C(=O)N2C[C@]3(C[C@H]2C#N)C(=O)Nc2ccccc23)c1 [Example 58] | 100 to 1000 |
| CC(C)C[C@@H](C(=O)N1C[C@]2(C[C@H]1C#N)C(=O)Nc1ccccc12)N(C)C(=O)c1ncccc1Cl [Example 59] | > 1000 |
| CC(C)C[C@@H](C(=O)N1C[C@]2(C[C@H]1C#N)C(=O)Nc1ccccc12)N(C)C(=O)c1cncc(C#N)c1 [Example 60] | 100 to 1000 |
| CC(C)C[C@@H](C(=O)N1C[C@]2(C[C@H]1C#N)C(=O)Nc1ccccc12)N(C)C(=O)c1ccc(F)cc1Cl [Example 61] | > 1000 |
| CC(C)C[C@@H](C(=O)N1C[C@]2(C[C@H]1C#N)C(=O)Nc1ccccc12)N(C)C(=O)c1cc(F)ccc1Cl [Example 62] | > 1000 |
| CC(C)C[C@@H](C(=O)N1C[C@]2(C[C@H]1C#N)C(=O)Nc1ccccc12)N(C)C(=O)c1ccc(F)c(Cl)c1 [Example 63] | > 1000 |
| CC(C)C[C@@H](C(=O)N1C[C@]2(C[C@H]1C#N)C(=O)Nc1ccccc12)N(C)C(=O)c1c(Cl)cccc1Cl [Example 64] | > 1000 |
| CC(C)C[C@@H](C(=O)N1C[C@]2(C[C@H]1C#N)C(=O)Nc1ccccc12)N(C)C(=O)c1cc2c(Cl)cccc2[nH]1 [Example 65] | < 100 |
| CC(C)C[C@@H](C(=O)N1C[C@]2(C[C@H]1C#N)C(=O)Nc1ccccc12)N(C)C(=O)c1cc2c(Br)ccc(Cl)c2[nH]1 [Example 66] | < 100 |
| CC(C)C[C@@H](C(=O)N1C[C@]2(C[C@H]1C#N)C(=O)Nc1ccccc12)N(C)C(=O)c1cc2c(OC3CC3)cccc2[nH]1 [Example 82] | < 100 |
| COc1cccc2[nH]c(C(=O)N(C)[C@@H](CC(C)(C)C)C(=O)N3C[C@]4(C[C@H]3C#N)C(=O)Nc3ccccc34)cc12 [Example 85] | < 100 |
| CN(C(=O)c1cc2c(F)c(F)ccc2[nH]1)[C@@H](CC(C)(C)C)C(=O)N1C[C@]2(C[C@H]1C#N)C(=O)Nc1ccccc12 [Example 86] | < 100 |
| CN(C(=O)c1cc2c(F)cccc2[nH]1)[C@@H](CC(C)(C)C)C(=O)N1C[C@]2(C[C@H]1C#N)C(=O)Nc1ccccc12 [Example 87] | < 100 |
| CN(C(=O)c1cc2c(F)cc(F)cc2[nH]1)[C@@H](CC(C)(C)C)C(=O)N1C[C@]2(C[C@H]1C#N)C(=O)Nc1ccccc12 [Example 88] | < 100 |
| CN(C(=O)OCc1ccccc1)[C@@H](CC1CCC1)C(=O)N1C[C@]2(C[C@H]1C#N)C(=O)Nc1ccccc12 [Example 89] | 100 to 1000 |
